Data on 4 compounds can be found in patent US8748460B2, “Iminosugars and methods of treating togaviral diseases” (priority 2009, dated 2014).

For series [1], the system named is Rift Valley Fever Virus (Bunyavirus) MP12 strain. The class given is cell-based. As to conditions: read-out: EC50, RVFV MP12 virus inhibition.
The test system of series [2] is Venezuelan Equine Encephalitis (Togaviridae) TC-83 strain. The class given is cell-based, Venezuelan equine encephalitis virus. Particulars: read-out: EC50, VEE virus inhibition.
Series [3] concerns Chikungunya (Togaviridae) 181/25 strain. The class given is cell-based. Particulars: read-out: EC50, Chikungunya virus inhibition.

For orientation: EC50 means the midpoint of the concentration-response curve. In the case of `CCCOCCCCCCN1C[C@H](O)[C@@H](O)[C@H](O)[C@H]1CO` [UV-3, N-(7-Oxadecyl)deoxynojirimycin], the EC50 in series [1] is 218 µM.

For `CCCCN1C[C@H](O)[C@@H](O)[C@H](O)[C@H]1CO` [UV-1, N-Butyl deoxynojirimycin], the EC50 in series [2] was determined as 156 µM.

On to `[N-]=[N+]=Nc1ccc(NCCCCCCN2C[C@H](O)[C@@H](O)[C@H](O)[C@H]2CO)c([N+](=O)[O-])c1` [UV-5, N—(N-{4′-azido-2′-nitrophenyl}-6-aminohexyl)deoxynojirimycin], for which the EC50 came out at 49 µM in series [1], 2 µM in series [2] and 22 µM in series [3].

As for `CCCCCCCCCN1C[C@H](O)[C@@H](O)[C@H](O)[C@H]1CO` [UV-2, N-Nonyl dexoynojirimycin], the EC50 was 58 µM in series [1], 12 µM in series [2] and 56 µM in series [3]. Further, the “toxicity at the highest concentration” value in the series with Vero cells is reported as “toxic”. Also, in the series on Vero cells, the “toxicity to cells at the highest concentration” value is listed as “toxic”.
